Test results published in ChEMBL document CHEMBL5727859, “Indole derivatives and use thereof” (2020).

Assay: FLIPR Assays: In vitro assays were performed in a recombinant cell line expressing cDNA encoding the alpha subunit (Nav1.7, SCN9a, PN1, NE) of human Nav1.7 (Accession No. NM_002977). The cell line was provided by investigators at Yale University (Cummins et al, J. Neurosci. 18(23): 9607-9619 (1998)). For dominant selection of the Nav1.7-expressing clones, the expression plasmid co-expressed the neomycin resistance gene. The cell line was constructed in the human embryonic kidney cell line, HEK293, under the influence of the […], and stable clones were selected using limiting dilution cloning and antibiotic selection using the neomycin analogue, G418. Recombinant beta and gamma subunits were not introduced into this cell line. Additional cell lines expressing recombinant Nav1.7 cloned from other species can also be used, alone or in combination with various beta subunits, gamma subunits or chaperones.

NC(=O)[C@H](O)[C@@H](O)c1cccc(-c2ccc3c(ccn3CC3CC3)c2)n1
IC50: 1020 µM
